According to patent publication US10603320B2, “Compounds useful for inhibiting ROR-gamma-t” (Eli Lilly and Company, priority 2017, dated 2020):

Experiments:
[1] = molecular target: human RAR-related orphan receptor beta (hRORb) (Homo sapiens (Human), UniProt Q92753); assay: RORb receptor-ligand competition binding assay; conditions: His-tagged hRORb, [3H]-labelled isoxazole benzoic acid ligand
[2] = molecular target: human RORg ligand binding domain fused to yeast GAL4 DNA binding domain (Homo sapiens (Human), UniProt P51449); assay: HEK293 RORg GAL4 Receptor-Reporter Assay; type: cell-based; conditions: HEK293 cells, RORg-GAL4/pGL4.31 luciferase reporter, 18 hours; mean ± standard deviation; read-out: hIC50
Description: As an indicator of inverse agonist activity, an RAR-related orphan receptor gamma (RORg) receptor-reporter assay (RORg-GAL4/pGL4.31) is performed in HEK293 cells. HEK293 cells are co-transfected using Fugene™ reagent. A reporter plasmid containing a GAL4 binding domain and a minimal adenoviral promoter upstream of a firefly luciferase gene is co-transfected with a plasmid constitutively expressing a human RORg ligand binding domain fused to yeast GAL4 DNA binding domain. Cells are transfected in T150 cm^2 flasks in MEM media without FBS. After 18 hours incubation, transfected cells are trypsinized, plated in 96-well microtiter plates in 3:1 DMEM-F12 media containing 10% FBS, incubated for 4 hours and then exposed to various concentrations of test compounds ranging from about 0.05 nM to 10 μM. After 18 hours of incubations with compounds, cells are lysed and luciferase activity is quantified using standard techniques. Data is fit to a 4 parameter-fit logistics to determine IC50 values.

[3] = tested on: PBMC; assay: cells; type: cell-based; conditions: Homo sapiens, 48 h, read-out: Cell TiterGlo Viability (EC50)
Description: PBMC's are isolated from whole blood buffy coats by first combining fresh buffy coats with equal volumes of phosphate buffered saline. Thirty five mL of PBS/buffy coat solution are then gently overlaid onto 15 mL of Ficoll in 50 mL conical tubes. Following centrifugation for 30 minutes at 500×g (with slow acceleration and deceleration) the top layer of plasma is discarded and the layer of cells along the Ficoll interface is collected and pooled. Each 250 mL tube is filled to the top with room temperature RPMI-1640 media. Tubes are spun for 10 minutes at 500×G (with slow acceleration and deceleration), the media is removed by aspiration, and the wash step is repeated. Cells are resuspended in ice cold Recovery Cell Culture Freezing Medium from Life Technologies (Catalog number 12648-010) on ice. […].
PBMC are brought out of thaw by resuspending with 1 mL of complete media (RPMI-1640 containing 30 mM HEPES, 100 units/mL penicillin, 100 μg/mL streptomycin, 3.25 mM L-Glutamine, 0.2 μM beta-mercaptoethanol, and 10% FBS) followed by the drop wise addition of 2 mL, 4 mL, 8 mL, and 16 mL of complete media with gentle swirling. Cells are spun down for 5 minutes and the cell pellet is resuspended in complete media. Clumps of cells are broken up by running the cell solution through a 23 gauge syringe needle and a 40 μM cell strainer. […].
Equal volumes of Cell TITERGLO® cell viability testing reagent (Promega Cat #G7573) are added to the cells remaining in the plates, and following a fifteen minute incubation with gentle shaking at room temperature luminescence is measured with the Envision multi-label plate reader. Percent cell death is calculated by setting 100% activity (cell death) to zero luminescence units and minimum activity (max number of viable cells) as the average luminescence units of wells containing stimulants alone and no added compound. IC50's are calculated using a standard four parameter fit.

[4] = molecular target: human RAR-related orphan receptor alpha (hRORa) (Homo sapiens (Human), UniProt P35398); assay: RORa receptor-ligand competition binding assay; conditions: His-tagged hRORa, [3H]-25-hydroxycholesterol; mean ± standard deviation
[5] = tested on: IL-17 secretion in PBMC; assay: PBMC IL-17 Secretion ELISA; type: cell-based; conditions: Homo sapiens; anti-CD3/anti-CD28/IL-23 stimulated PBMC, 48 hours; mean ± standard deviation; read-out: hPBMC IL-17 ELISA (EC50)
Description: PBMC's are isolated from whole blood buffy coats by first combining fresh buffy coats with equal volumes of phosphate buffered saline. Thirty five mL of PBS/buffy coat solution are then gently overlaid onto 15 mL of Ficoll in 50 mL conical tubes. Following centrifugation for 30 minutes at 500×g (with slow acceleration and deceleration) the top layer of plasma is discarded and the layer of cells along the Ficoll interface is collected and pooled. Each 250 mL tube is filled to the top with room temperature RPMI-1640 media. Tubes are spun for 10 minutes at 500×G (with slow acceleration and deceleration), the media is removed by aspiration, and the wash step is repeated. Cells are resuspended in ice cold Recovery Cell Culture Freezing Medium from Life Technologies (Catalog number 12648-010) on ice. The cell concentration is adjusted to 66.7 million cells/mL. Cell are slow frozen at −1° C./minute in vials with 100 million cells and stored in liquid nitrogen.
PBMC are brought out of thaw by resuspending with 1 mL of complete media (RPMI-1640 containing 30 mM HEPES, 100 units/mL penicillin, 100 μg/mL streptomycin, 3.25 mM L-Glutamine, 0.2 μM beta-mercaptoethanol, and 10% FBS) followed by the drop wise addition of 2 mL, 4 mL, 8 mL, and 16 mL of complete media with gentle swirling. Cells are spun down for 5 minutes and the cell pellet is resuspended in complete media. Clumps of cells are broken up by running the cell solution through a 23 gauge syringe needle and a […] cell strainer. One hundred thousand cells per well are added to 384 well polystyrene tissue culture treated flat bottomed plates in a total of 30 μL. […]
Following the incubation period the plates are spun at 200×g for five minutes. […] Absorbance at 492 nm is measured with the Envision multi-label plate reader. […] IC50's for inhibition of IL-17 secretion is calculated based on converted values using a standard 4-parameter fit with maximum inhibition determined from the average values of wells with no added stimulants nor compounds and minimum inhibition from the average values of wells with stimulants alone and no added compound.

[6] = molecular target: human RAR-related orphan receptor gamma (hRORg) (Homo sapiens (Human), UniProt P51449); assay: RORg receptor-ligand competition binding assay; conditions: His-tagged hRORg, [3H]-25-hydroxycholesterol; mean ± standard deviation
Sequence of human RAR-related orphan receptor gamma (hRORg) (P51449 whole entry): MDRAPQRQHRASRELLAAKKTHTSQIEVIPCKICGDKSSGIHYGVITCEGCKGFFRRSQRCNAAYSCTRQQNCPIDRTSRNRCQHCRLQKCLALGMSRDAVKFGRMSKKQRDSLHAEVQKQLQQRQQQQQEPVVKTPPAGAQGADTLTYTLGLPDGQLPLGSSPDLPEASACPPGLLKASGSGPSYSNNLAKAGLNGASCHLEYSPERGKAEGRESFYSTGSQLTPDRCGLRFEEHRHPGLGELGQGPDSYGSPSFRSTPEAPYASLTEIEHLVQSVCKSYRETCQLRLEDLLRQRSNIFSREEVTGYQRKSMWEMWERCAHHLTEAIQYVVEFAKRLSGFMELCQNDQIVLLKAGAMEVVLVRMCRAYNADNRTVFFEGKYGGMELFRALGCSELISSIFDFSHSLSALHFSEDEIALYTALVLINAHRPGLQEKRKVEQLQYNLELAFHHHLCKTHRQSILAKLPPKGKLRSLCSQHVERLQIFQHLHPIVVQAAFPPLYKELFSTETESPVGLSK

Sequence of human RAR-related orphan receptor beta (hRORb) (Q92753 whole entry, the tested form may be a part): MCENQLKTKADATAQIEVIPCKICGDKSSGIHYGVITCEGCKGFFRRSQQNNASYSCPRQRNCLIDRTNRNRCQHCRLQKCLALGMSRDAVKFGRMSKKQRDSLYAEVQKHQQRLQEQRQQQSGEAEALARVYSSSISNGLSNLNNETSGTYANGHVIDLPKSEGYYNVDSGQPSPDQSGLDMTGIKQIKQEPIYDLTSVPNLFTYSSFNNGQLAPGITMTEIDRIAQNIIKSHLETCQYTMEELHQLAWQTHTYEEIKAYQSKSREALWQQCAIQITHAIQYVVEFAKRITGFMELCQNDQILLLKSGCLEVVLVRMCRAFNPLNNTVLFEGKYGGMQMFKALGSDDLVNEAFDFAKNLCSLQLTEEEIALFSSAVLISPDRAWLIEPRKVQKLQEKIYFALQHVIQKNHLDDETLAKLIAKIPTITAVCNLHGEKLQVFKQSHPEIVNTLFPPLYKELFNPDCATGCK
Sequence of human RORg ligand binding domain fused to yeast GAL4 DNA binding domain (P51449 269-508): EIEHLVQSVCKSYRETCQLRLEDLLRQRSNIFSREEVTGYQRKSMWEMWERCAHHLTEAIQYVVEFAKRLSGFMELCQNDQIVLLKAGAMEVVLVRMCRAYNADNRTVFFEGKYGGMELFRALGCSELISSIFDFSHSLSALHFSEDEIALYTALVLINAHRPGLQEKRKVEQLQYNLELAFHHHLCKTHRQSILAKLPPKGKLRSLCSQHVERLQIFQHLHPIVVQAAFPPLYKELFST
Sequence of human RAR-related orphan receptor alpha (hRORa) (P35398 whole entry): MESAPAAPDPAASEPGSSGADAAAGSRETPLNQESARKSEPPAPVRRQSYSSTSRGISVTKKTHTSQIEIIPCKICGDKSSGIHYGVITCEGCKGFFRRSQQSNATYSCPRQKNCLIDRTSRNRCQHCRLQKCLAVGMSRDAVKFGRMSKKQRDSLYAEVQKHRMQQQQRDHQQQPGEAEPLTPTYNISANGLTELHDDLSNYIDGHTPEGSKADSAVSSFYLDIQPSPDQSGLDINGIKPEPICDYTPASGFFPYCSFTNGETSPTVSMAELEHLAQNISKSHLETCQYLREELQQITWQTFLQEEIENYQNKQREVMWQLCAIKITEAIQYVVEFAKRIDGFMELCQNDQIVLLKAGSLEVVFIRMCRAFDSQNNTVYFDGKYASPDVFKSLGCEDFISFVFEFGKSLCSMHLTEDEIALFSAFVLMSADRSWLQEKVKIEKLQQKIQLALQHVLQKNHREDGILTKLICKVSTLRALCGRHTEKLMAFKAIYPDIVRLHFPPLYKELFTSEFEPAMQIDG

SMILES | Ki [1] [µM] | IC50 [2] [µM] | EC50 [3] [µM] | Ki [4] [µM] | EC50 [5] [µM] | Ki [6] [µM]
CCS(=O)(=O)c1ccc(CNC(=O)c2cc3c(s2)C2(CCN(C(C)c4ccc(C#N)cc4)CC2)OC2(CC2)C3)cc1 (single isomer, unassigned; isomer 1) [Example 8, 1′-[1-(4-Cyanophenyl)ethyl]-5,5-spirocyclopropane-N-[(4-ethylsulfonylphenyl)methyl]spiro[4H-thieno[2,3-c]pyran-7,4′-piperidine]-2-carboxamide isomer 1] | > 12.5 | 0.0344 ± 0.00601 | > 1 | > 20.4 | 0.0109 ± 0.00644 | 0.006 ± 0.00181
CCS(=O)(=O)c1ccc(CNC(=O)c2cc3c(s2)C2(CCN([C@H](C)c4cnc(C(F)(F)F)nc4)CC2)OC(C)(C)C3)nc1 [Example 5, N-{[5-(Ethylsulfonyl)pyridin-2-yl]methyl}-5′,5′-dimethyl-1-{(1R)-1-[2-(trifluoromethyl)pyrimidin-5-yl]ethyl}-4′,5′-dihydrospiro[piperidine-4,7′-thieno[2,3-c]pyran]-2′-carboxamide] | > 12.5 | 0.0167 ± 0.0203 | > 1 |  | 0.011 ± 0.00767 | 0.00696 ± 0.00389
CCS(=O)(=O)c1ccc(CNC(=O)c2cc3c(s2)C2(CCN([C@H](C)c4cnc(C(F)(F)F)nc4)CC2)OC2(CC2)C3)nc1 [Example 7, N-{[5-(Ethylsulfonyl)pyridin-2-yl]methyl}-1″-(1R)-1-[2-(trifluoromethyl)pyrimidin-5-yl]ethyl-4′H-dispiro[cyclopropane-1,5′-thieno[2,3-c]pyran-7′,4″-piperidine]-2′-carboxamide] | > 12.5 | 0.0223 ± 0.0238 | > 1 |  | 0.0146 ± 0.00824 | 0.0064 ± 0.00262
